According to the supplement of paper PMC5579334:

Assays:
HS-PSS [1] = assay: relative IC50 (inflection point of fitted dose-response curve, CellTox-Green cytotoxicity, 72 h; top asymptote may be below 50%); higher = less potent
Procedure, shortened: (§1)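 MPNST cell lines and primary human Schwann cells were grown for 72 h at 37 °C in 384-well plates containing five 10-fold compound dilutions. CellTox-Green, added before seeding at a final 1:1000 dilution, gave fluorescence from DNA released by disrupted cells, and signals were scaled to vehicle and positive-control wells. Curves were fitted with a four-parameter logistic model. Drug sensitivity score and relative IC50 come from these fits, with IC50 censored at the top concentration.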

HSC1 [2] = assay: as above
Procedure, shortened: as §1

HSC2 [3] = assay: as above
Procedure, shortened: as §1

S1507-2 = assay: as above
Procedure, shortened: as §1

ST8814 [4] = assay: as above
Procedure, shortened: as §1

STS26T [5] = assay: as above
Procedure, shortened: as §1

HS-PSS [6] = assay: relative IC50 (inflection point of fitted dose-response curve, CellTiter-Glo viability, 72 h; top asymptote may be below 50% inhibition); higher = less potent
Procedure, shortened: (§2)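 For this screen, 384-well plates were preprinted with each compound at five concentrations in 10-fold steps and seeded with MPNST cell lines or primary human Schwann cells at 750–1000 cells per well. Incubation lasted 72 h at 37 °C, 5% CO2, and CellTiter-Glo ATP luminescence, scaled between vehicle and positive-control wells and averaged over duplicates where available, served as viability. Logistic fits with four parameters were applied. Relative IC50 (censored at the top concentration) and drug sensitivity score derive from these fits, and percent inhibition is at the top concentration.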

HS-Sch-2 = assay: as above
Procedure, shortened: as §2

HSC1 [7] = assay: as above
Procedure, shortened: as §2

HSC2 [8] = assay: as above
Procedure, shortened: as §2

ST8814 [9] = assay: as above
Procedure, shortened: as §2

STS26T [10] = assay: as above
Procedure, shortened: as §2

YST-1 = assay: as above
Procedure, shortened: as §2

S462 = assay: as above
Procedure, shortened: as §2

Compound	relative IC50 (HS-PSS [1]) [µM]	relative IC50 (HSC1 [2]) [µM]	relative IC50 (HSC2 [3]) [µM]	relative IC50 (S1507-2) [µM]	relative IC50 (ST8814 [4]) [µM]	relative IC50 (STS26T [5]) [µM]	relative IC50 (HS-PSS [6]) [µM]	relative IC50 (HS-Sch-2) [µM]	relative IC50 (HSC1 [7]) [µM]	relative IC50 (HSC2 [8]) [µM]	relative IC50 (ST8814 [9]) [µM]	relative IC50 (STS26T [10]) [µM]	relative IC50 (YST-1) [nM]	relative IC50 (S462) [µM]
Cc1ccc(C(=O)N(CCCN)[C@@H](c2oc3cc(Cl)ccc3c(=O)c2Cc2ccccc2)C(C)C)cc1	> 0.1	> 0.1	> 0.1	> 0.1	> 0.1	> 0.1	0.00129	0.00166	> 0.1	> 0.1	> 0.1	> 0.1	0.94	–
COc1cc2nccc(Oc3ccc(NC(=O)C4(C(=O)Nc5ccc(F)cc5)CC4)cc3)c2cc1OC [Cabozantinib]	> 1	> 1	> 1	> 1	> 1	> 1	–	–	–	> 1	–	–	> 1000	–
O=c1[nH]cc(F)c(=O)[nH]1 [Fluorouracil]	> 10	> 10	> 10	> 10	> 10	–	3.57	2.87	3.58	3.29	> 10	0.907	3280	–
CN1CCN(c2ccc3nc(-c4c(N)c5c(F)cccc5[nH]c4=O)[nH]c3c2)CC1 [Dovitinib]	> 10	> 10	> 10	> 10	> 10	> 10	> 10	–	–	–	> 10	–	–	–
CCc1cncnc1N1CCN(Cc2nc3ccc(C(F)(F)F)cc3[nH]2)CC1	> 10	> 10	> 10	> 10	> 10	> 10	2.57	3.73	–	–	–	–	–	–
C[C@]12C=CC(=O)C=C1CC[C@@H]1[C@@H]2[C@@H](O)C[C@@]2(C)[C@H]1CC[C@]2(O)C(=O)CO [Prednisolone]	> 10	> 10	> 10	> 10	> 10	> 10	> 10	> 10	> 10	> 10	–	> 10	–	> 10
CC(C)(C)c1cc(NC(=O)Nc2ccc(-c3cn4c(n3)sc3cc(OCCN5CCOCC5)ccc34)cc2)no1 [Quizartinib]	> 1	> 1	> 1	> 1	> 1	> 1	> 1	–	0.197	0.402	–	–	153	0.179
O=C(c1ccc(C(=O)N2CCC(N3CCCC3)CC2)c(Nc2ccccc2)c1)N1CCC(N2CCCC2)CC1 [UNC1215]	> 30	> 30	> 30	> 30	> 30	–	–	–	> 30	> 30	–	> 30	> 30000	> 30
CC(C)n1cnc2c(NCCc3ccc(O)cc3)nc(-c3csc4ccccc34)nc21 [StemRegenin 1]	> 10	> 10	> 10	> 10	> 10	–	3.2	3.54	3.83	2.2	2.52	3.83	> 10000	–
C=CC[C@@H]1/C=C(\C)C[C@H](C)C[C@H](OC)[C@H]2O[C@@](O)(C(=O)C(=O)N3CCCC[C@H]3C(=O)O[C@H](/C(C)=C/[C@@H]3CC[C@@H](O)[C@H](OC)C3)[C@H](C)[C@@H](O)CC1=O)[C@H](C)C[C@@H]2OC [Tacrolimus]	> 10	> 10	> 10	> 10	> 10	> 10	> 10	> 10	–	> 10	–	> 10	> 10000	> 10
N[C@@H](Cc1ccc(N(CCCl)CCCl)cc1)C(=O)O [Melphalan aq]	–	> 12.5	> 12.5	> 12.5	> 12.5	> 12.5	–	–	–	> 12.5	> 12.5	> 12.5	–	> 12.5
NC1(c2ccc(-c3nc4ccn5c(=O)[nH]nc5c4cc3-c3ccccc3)cc2)CCC1 [MK-2206]	> 1	> 1	> 1	> 1	> 1	> 1	–	–	–	> 1	> 1	0.118	128	–
Sc1ncnc2nc[nH]c12 [Mercaptopurine]	> 10	> 10	> 10	> 10	> 10	–	–	0.64	> 10	> 10	0.193	1.27	–	1.46
CN1CCN(c2nc(C3=C(c4c[nH]c5ccccc45)C(=O)NC3=O)c3ccccc3n2)CC1 [Sotrastaurin]	> 10	> 10	> 10	> 10	> 10	> 10	> 10	> 10	> 10	> 10	–	> 10	–	–
O=C(O)CNC(=O)c1c(O)c2ccccc2n(Cc2ccccc2)c1=O [IOX-2]	> 50	> 50	> 50	> 50	> 50	> 50	10.3	12.5	> 50	–	8.42	–	–	–
CC[C@H](Nc1ncnc2[nH]cnc12)c1nc2cccc(F)c2c(=O)n1-c1ccccc1 [Idelalisib]	> 10	> 10	0.511	> 10	> 10	–	> 10	> 10	> 10	> 10	–	1.54	1040	> 10
CCCC(CCC)C(=O)O [Valproic acid aq]	–	> 1000	> 1000	> 1000	–	–	–	–	269	217	168	254	–	–

Compound	relative IC50 (HS-PSS [1]) [µM]	relative IC50 (HSC1 [2]) [µM]	relative IC50 (HSC2 [3]) [µM]	relative IC50 (S1507-2) [µM]	relative IC50 (ST8814 [4]) [µM]	relative IC50 (STS26T [5]) [µM]	relative IC50 (HS-PSS [6]) [µM]	relative IC50 (HS-Sch-2) [µM]	relative IC50 (HSC1 [7]) [µM]	relative IC50 (HSC2 [8]) [µM]	relative IC50 (ST8814 [9]) [µM]	relative IC50 (STS26T [10]) [µM]	relative IC50 (YST-1) [nM]	relative IC50 (S462) [µM]
Cc1ccc(F)c(NC(=O)Nc2ccc(-c3cccc4[nH]nc(N)c34)cc2)c1 [Linifanib]	> 1	> 1	> 1	> 1	> 1	> 1	> 1	> 1	> 1	–	–	> 1	> 1000	–
C[C@]1(c2nc3c(C(N)=O)cccc3[nH]2)CCCN1 [Veliparib]	> 10	> 10	> 10	> 10	> 10	> 10	–	> 10	–	–	> 10	> 10	1160	–
Cc1sc2c(c1C)C(c1ccc(Cl)cc1)=N[C@H](CC(=O)OC(C)(C)C)c1nnc(C)n1-2 [(-)JQ1]	–	> 10	> 10	> 10	> 10	> 10	–	–	–	–	–	–	–	–
Nc1nc(F)nc2c1ncn2[C@@H]1O[C@H](CO)[C@@H](O)[C@@H]1O [Fludarabine]	> 10	> 10	> 10	> 10	> 10	> 10	–	2.2	3.61	2.72	> 10	1.65	3480	–
C[C@@H]1C[C@H]2[C@@H]3CCC4=CC(=O)C=C[C@]4(C)[C@@]3(F)[C@@H](O)C[C@]2(C)[C@@]1(O)C(=O)CO [Dexamethasone]	> 10	> 10	> 10	> 10	> 10	> 10	> 10	–	> 10	> 10	–	> 10	–	–
NC(=O)NO [Hydroxyurea]	> 100	> 100	> 100	> 100	> 100	> 100	> 100	–	–	–	> 100	> 100	–	> 100
CNC(=O)c1cc(Oc2ccc(NC(=O)Nc3ccc(Cl)c(C(F)(F)F)c3)c(F)c2)ccn1 [Regorafenib]	> 10	> 10	> 10	> 10	3.16	–	3.58	3.57	2.77	2.05	1.34	1.69	1700	1.7
C=CCN(/C=C1/C(=O)O[C@H](COC)[C@@]2(C)C1=C(O)C(=O)C1=C2[C@H](OC(C)=O)C[C@]2(C)C(=O)CC[C@@H]12)CC=C [Sonolisib]	> 10	> 10	> 10	> 10	> 10	> 10	> 10	> 10	–	–	–	–	> 10000	–
Cn1nnc2c(C(N)=O)ncn2c1=O [Temozolomide]	> 100	> 10	> 10	> 10	> 10	> 10	–	–	> 10	> 10	–	> 10	–	> 10
Cn1cnc2c(F)c(Nc3ccc(Br)cc3F)c(C(=O)NOCCO)cc21 [MEK-162]	–	> 1	> 1	> 1	> 1	> 1	–	–	–	> 1	–	–	–	0.124
O=C1CCC(N2C(=O)c3ccccc3C2=O)C(=O)N1 (centres undefined) [Thalidomide]	> 10	> 10	> 10	> 10	> 10	–	> 10	–	> 10	> 10	–	> 10	> 10000	> 10
CCCCCCCCCCCCCCCCCCOP(=O)([O-])OC1CC[N+](C)(C)CC1 [Perifosine aq/PBS]	–	> 2.5	> 2.5	> 2.5	–	0.963	–	–	> 2.5	> 2.5	–	0.602	–	–
C[C@@H]1CCN(C(=O)CC#N)C[C@@H]1N(C)c1ncnc2[nH]ccc12 [Tofacitinib]	> 5	> 5	> 5	> 5	> 5	> 5	> 5	> 5	–	0.742	> 5	–	> 5000	–
C=C1C[C@@H]2[C@H](CC[C@]3(C)C(=O)CC[C@@H]23)[C@@]2(C)C=CC(=O)C=C12 [Exemestane]	> 10	> 10	> 10	> 10	> 10	> 10	1.76	–	> 10	> 10	> 10	> 10	> 10000	–
Nc1cccc2c1CN(C1CCC(=O)NC1=O)C2=O (centres undefined) [Lenalidomide]	> 100	> 10	1.87	> 10	> 10	> 10	> 100	–	–	–	> 10	> 10	–	> 10
C[C@H]1C[C@@H]2[C@H]([C@@H](O)C[C@@]3(C)[C@H]2CC[C@]3(O)C(=O)CO)[C@@]2(C)C=CC(=O)C=C12 [Methylprednisolone]	> 10	> 10	> 10	> 10	> 10	> 10	> 10	–	> 10	> 10	–	> 10	–	–
